Test results: patent US11566007B2, “Ras inhibitors” (Revolution Medicines, Inc., priority 2019, dated 2023)
Several values for one entry are separate records, joined by “and”; a condition that tells them apart may be missing. Identical values can stand only once. Like-named read-outs stand apart in the source and are kept apart here.

Tests used:
[1] = tested on: NCI-H358 cells (K-Ras G12C); assay: Potency assay: pERK in NCI-H358 cells; assay type: cell-based, human; conditions: Homo sapiens
In short: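 Inhibition of cellular pERK after a 4 h treatment, detected by AlphaLISA or In-Cell Western. IC50 from a four-parameter concentration-response fit.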

K-Ras G12C = K-Ras G12C (Homo sapiens (Human), UniProt P01116+P62937, G12C); assay: Ras-Raf (BRAF RBD) disruption / FRET / MOA assay, KRAS G12C; assay type: biochemical; conditions: KRAS G12C; Ras-Raf disruption/FRET/MOA assay; read-out: IC50* KRAS G12C FRET data
Chain of K-Ras G12C (P01116-2 other isoform, or with tags, fused parts or gaps G12C): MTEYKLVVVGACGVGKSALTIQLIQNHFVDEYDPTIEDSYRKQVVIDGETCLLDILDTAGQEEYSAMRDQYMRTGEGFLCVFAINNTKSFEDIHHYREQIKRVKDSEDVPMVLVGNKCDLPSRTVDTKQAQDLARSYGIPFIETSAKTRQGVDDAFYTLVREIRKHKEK
Chain of K-Ras G12C (P62937 whole entry): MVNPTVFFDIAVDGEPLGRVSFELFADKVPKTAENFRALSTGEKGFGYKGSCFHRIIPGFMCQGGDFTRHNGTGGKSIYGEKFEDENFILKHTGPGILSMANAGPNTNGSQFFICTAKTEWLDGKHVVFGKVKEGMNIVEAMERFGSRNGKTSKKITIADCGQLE
In short: (§1)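 A 10-point, 3-fold dilution series topping at 30 μM final was incubated 3 h at 25° C with the Ras/cyclophilin A/BRAF RBD mixture.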

K-Ras G13C = K-Ras G13C (Homo sapiens (Human), UniProt P01116+P62937, G13C); assay: Ras-Raf (BRAF RBD) disruption / FRET / MOA assay, KRAS G13C; assay type: biochemical; conditions: KRAS G13C; Ras-Raf disruption/FRET/MOA assay; read-out: IC50* KRAS G13C FRET data
Chain of K-Ras G13C (P01116-2 other isoform, or with tags, fused parts or gaps G13C): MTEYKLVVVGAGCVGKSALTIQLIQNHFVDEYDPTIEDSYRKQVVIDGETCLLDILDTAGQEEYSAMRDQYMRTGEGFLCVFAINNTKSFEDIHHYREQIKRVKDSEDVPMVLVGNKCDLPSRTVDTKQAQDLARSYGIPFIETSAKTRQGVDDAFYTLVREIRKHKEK
Chain of K-Ras G13C (P62937 whole entry): as the sequence (P62937 whole entry) above
In short: as §1

KRAS G12S = KRAS G12S (Homo sapiens (Human), UniProt P01116+P62937, G12S); assay: Ras-Raf (BRAF RBD) disruption / FRET / MOA assay, KRAS G12S; assay type: biochemical; conditions: Ras-Raf disruption/FRET/MOA assay; class symbols; read-out: KRAS G12S FRET data IC50
Chain of KRAS G12S (P01116-2 other isoform, or with tags, fused parts or gaps G12S): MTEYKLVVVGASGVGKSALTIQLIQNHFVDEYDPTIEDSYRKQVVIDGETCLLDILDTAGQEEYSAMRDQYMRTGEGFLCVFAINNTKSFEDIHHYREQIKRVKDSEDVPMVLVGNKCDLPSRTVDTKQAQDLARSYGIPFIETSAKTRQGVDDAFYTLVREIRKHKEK
Chain of KRAS G12S (P62937 whole entry): as the sequence (P62937 whole entry) above
In short: as §1

KRAS G12D = KRAS G12D (Homo sapiens (Human), UniProt P01116+P62937, G12D); assay: Ras-Raf (BRAF RBD) disruption / FRET / MOA assay, KRAS G12D; assay type: biochemical; conditions: Ras-Raf disruption/FRET/MOA assay; class symbols; read-out: KRAS G12D FRET data IC50
Chain of KRAS G12D (P01116-2 other isoform, or with tags, fused parts or gaps G12D): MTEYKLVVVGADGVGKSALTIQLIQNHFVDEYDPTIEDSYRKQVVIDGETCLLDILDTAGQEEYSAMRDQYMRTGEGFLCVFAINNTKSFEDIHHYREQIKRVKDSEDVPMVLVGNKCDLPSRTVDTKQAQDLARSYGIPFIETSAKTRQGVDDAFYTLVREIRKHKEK
Chain of KRAS G12D (P62937 whole entry): as the sequence (P62937 whole entry) above
In short: as §1

KRAS G12V = KRAS G12V (Homo sapiens (Human), UniProt P01116+P62937, G12V); assay: Ras-Raf (BRAF RBD) disruption / FRET / MOA assay, KRAS G12V; assay type: biochemical; conditions: read-out: IC50* KRAS G12V FRET data
Chain of KRAS G12V (P01116-2 other isoform, or with tags, fused parts or gaps G12V): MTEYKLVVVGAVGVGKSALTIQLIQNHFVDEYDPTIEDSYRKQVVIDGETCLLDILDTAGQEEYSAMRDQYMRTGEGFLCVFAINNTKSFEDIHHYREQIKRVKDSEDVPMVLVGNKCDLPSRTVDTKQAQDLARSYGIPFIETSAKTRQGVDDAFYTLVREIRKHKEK
Chain of KRAS G12V (P62937 whole entry): as the sequence (P62937 whole entry) above
In short: as §1

KRAS WT = KRAS WT (Homo sapiens (Human), UniProt P01116+P62937); assay: Ras-Raf (BRAF RBD) disruption / FRET / MOA assay, KRAS WT; assay type: biochemical; conditions: read-out: IC50* KRAS WT FRET data
Chain of KRAS WT (P01116-2 other isoform, or with tags, fused parts or gaps): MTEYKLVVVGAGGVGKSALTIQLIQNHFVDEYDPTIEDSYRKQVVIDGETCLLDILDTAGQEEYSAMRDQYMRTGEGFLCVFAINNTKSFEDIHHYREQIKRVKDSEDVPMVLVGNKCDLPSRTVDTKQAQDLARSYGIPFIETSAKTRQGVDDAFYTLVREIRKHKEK
Chain of KRAS WT (P62937 whole entry): as the sequence (P62937 whole entry) above
In short: as §1

KRAS G13D = KRAS G13D (Homo sapiens (Human), UniProt P01116+P62937, G13D); assay: Ras-Raf (BRAF RBD) disruption / FRET / MOA assay, KRAS G13D; assay type: biochemical; conditions: read-out: IC50* KRAS G13D FRET data
Chain of KRAS G13D (P01116-2 other isoform, or with tags, fused parts or gaps G13D): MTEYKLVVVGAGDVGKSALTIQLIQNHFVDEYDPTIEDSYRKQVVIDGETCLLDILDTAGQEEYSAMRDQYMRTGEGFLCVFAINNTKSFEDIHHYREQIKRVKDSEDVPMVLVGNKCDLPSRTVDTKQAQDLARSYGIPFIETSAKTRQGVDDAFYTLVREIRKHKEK
Chain of KRAS G13D (P62937 whole entry): as the sequence (P62937 whole entry) above
In short: as §1

KRAS Q61H = KRAS Q61H (Homo sapiens (Human), UniProt P01116+P62937, Q61H); assay: Ras-Raf (BRAF RBD) disruption / FRET / MOA assay, KRAS Q61H; assay type: biochemical; conditions: Ras-Raf disruption/FRET/MOA assay; class symbols; read-out: KRAS Q61H FRET data IC50
Chain of KRAS Q61H (P01116-2 other isoform, or with tags, fused parts or gaps Q61H): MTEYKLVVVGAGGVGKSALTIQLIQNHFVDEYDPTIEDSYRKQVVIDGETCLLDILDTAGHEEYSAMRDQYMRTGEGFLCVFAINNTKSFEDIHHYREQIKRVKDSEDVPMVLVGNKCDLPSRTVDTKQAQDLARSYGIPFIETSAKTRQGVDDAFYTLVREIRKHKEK
Chain of KRAS Q61H (P62937 whole entry): as the sequence (P62937 whole entry) above
In short: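 Compounds (30 μM top final, 10-point 3-fold dilutions) incubated 3 h at 25° C with nucleotide-loaded Ras, cyclophilin A and BRAF RBD. Detection with 10 nM anti-His Eu-W1024 and 50 nM anti-GST allophycocyanin over another 1.5 h. Lowered TR-FRET ratio relative to DMSO wells gives IC50.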

NRAS G12C = NRAS G12C (Homo sapiens (Human), UniProt P01111+P62937, G12C); assay: Ras-Raf (BRAF RBD) disruption / FRET / MOA assay, NRAS G12C; assay type: biochemical; conditions: read-out: IC50* NRAS G12C FRET data
Chain of NRAS G12C (P01111 whole entry G12C): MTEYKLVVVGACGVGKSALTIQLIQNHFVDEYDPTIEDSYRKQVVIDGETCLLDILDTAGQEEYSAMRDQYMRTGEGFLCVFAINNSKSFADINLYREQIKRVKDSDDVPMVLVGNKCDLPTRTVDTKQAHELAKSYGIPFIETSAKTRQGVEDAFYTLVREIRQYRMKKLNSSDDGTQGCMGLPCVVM
Chain of NRAS G12C (P62937 whole entry): as the sequence (P62937 whole entry) above
In short: as §1

NRAS Q61R = NRAS Q61R (Homo sapiens (Human), UniProt P01111+P62937, Q61R); assay: Ras-Raf (BRAF RBD) disruption / FRET / MOA assay, NRAS Q61R; assay type: biochemical; conditions: NRAS Q61R; Ras-Raf disruption/FRET/MOA assay; read-out: IC50* NRAS Q61R FRET data
Chain of NRAS Q61R (P01111 whole entry Q61R, canonical isoform): as the sequence (P01111 whole entry G12C) above, with C12G, Q61R counted along it
Chain of NRAS Q61R (P62937 whole entry, canonical isoform): as the sequence (P62937 whole entry) above
Method: (§2) The purpose of this biochemical assay is to measure the ability of test compounds to facilitate ternary complex formation between a nucleotide-loaded Ras isoform and cyclophilin A; the resulting ternary complex disrupts binding to a BRAF^RBD construct, inhibiting Ras signaling through a RAF effector.
(§3) […]. Compound is present in plate wells as a 10-point 3-fold dilution series starting at a final concentration of 30 μM. After incubation at 25° C. for 3 hours, a mixture of Anti-His Eu-W1024 and anti-GST allophycocyanin is then added to assay sample wells at final concentrations of 10 nM and 50 nM, respectively, and the reaction incubated for an additional 1.5 hours. […] Compounds that facilitate disruption of a Ras:RAF complex are identified as those eliciting a decrease in the TR-FRET ratio relative to DMSO control wells.
(§4) Note—The following protocol describes a procedure for monitoring disruption of K-Ras G12C (GMP-PNP) binding to BRAF^RBD by a compound of the invention. This protocol may also be executed substituting other Ras proteins or nucleotides.
(§5) The purpose of this biochemical assay was to measure the ability of test compounds to facilitate ternary complex formation between a nucleotide-loaded K-Ras isoform and Cyclophilin A; the resulting ternary complex disrupts binding to a BRAF^RBD construct, inhibiting K-Ras signaling through a RAF effector. Data is reported as IC50 values.
as §3, with “Compound was” for “Compound is”, “allophycocyanin was” for “allophycocyanin is”, “a K-Ras:RAF” for “a Ras:RAF”, “complex were” for “complex are”

NRAS Q61K = NRAS Q61K (Homo sapiens (Human), UniProt P01111+P62937, Q61K); assay: Ras-Raf (BRAF RBD) disruption / FRET / MOA assay, NRAS Q61K; assay type: biochemical; conditions: NRAS Q61K; Ras-Raf disruption/FRET/MOA assay; read-out: IC50* NRAS Q61K FRET data
Chain of NRAS Q61K (P01111 whole entry Q61K): as the sequence (P01111 whole entry G12C) above, with C12G, Q61K counted along it
Chain of NRAS Q61K (P62937 whole entry): as the sequence (P62937 whole entry) above
Method: as §2, §3, §4, §5
as §3, with “Compound was” for “Compound is”, “allophycocyanin was” for “allophycocyanin is”, “a K-Ras:RAF” for “a Ras:RAF”, “complex were” for “complex are”

NRAS WT = NRAS WT (Homo sapiens (Human), UniProt P01111+P62937); assay: Ras-Raf (BRAF RBD) disruption / FRET / MOA assay, NRAS WT; assay type: biochemical; conditions: read-out: IC50* NRAS WT FRET data
Chain of NRAS WT (P01111 whole entry): as the sequence (P01111 whole entry G12C) above, with C12G counted along it
Chain of NRAS WT (P62937 whole entry): as the sequence (P62937 whole entry) above
Method: as §2, §3, §4, §5
as §3, with “Compound was” for “Compound is”, “allophycocyanin was” for “allophycocyanin is”, “a K-Ras:RAF” for “a Ras:RAF”, “complex were” for “complex are”

[2] = NCI-H358, H358 KRAS G12C, read-out: pERK EC50

Row | Structure (SMILES) | EC50 ([1]; NCI-H358, read-out: pERK EC50) | IC50 (K-Ras G12C) | IC50 (K-Ras G13C) | IC50 (KRAS G12S) | IC50 (KRAS G12D) | IC50 (KRAS G12V) | IC50 (KRAS WT) | IC50 (KRAS G13D) | IC50 (KRAS Q61H) | IC50 (NRAS G12C) | IC50 (NRAS Q61R) | IC50 (NRAS Q61K) | IC50 (NRAS WT) | EC50 [1, 2]
1 | CCn1c(-c2cccnc2[C@H](C)OC)c2c3cc(ccc31)-c1cccc(c1)C[C@H](NC(=O)[C@H](C(C)C)N1CC[C@]3(CCN(C(=O)C#C[C@H]4COCCN4C)C3)C1=O)C(=O)N1CCC[C@H](N1)C(=O)OCC(C)(C)C2 (atropisomer, axis not shown) [Example A592] | < 5000 nM | 10 to 100 nM | 1000 to 10000 nM | 1000 to 10000 nM | > 10000 nM | 1000 to 10000 nM | > 10000 nM | > 10000 nM | 1000 to 10000 nM | 10 to 100 nM | > 10000 nM | > 10000 nM | > 10000 nM | 
2 | C=CC(=O)N1CCO[C@H]2CCN(C(=O)N(C)[C@H](C(=O)N[C@H]3Cc4nc(cs4)-c4ccc5c(c4)c(c(-c4cccnc4[C@H](C)OC)n5CC)CC(C)(C)COC(=O)[C@@H]4CCCN(N4)C3=O)C(C)C)C[C@@H]21 (atropisomer, axis not shown) [Example A609] |  | < 10 nM | 10 to 100 nM | 10 to 100 nM | 100 to 1000 nM | 10 to 100 nM | 10 to 100 nM | 100 to 1000 nM | 10 to 100 nM | < 10 nM | 10 to 100 nM | 10 to 100 nM | 10 to 100 nM | < 5000 nM
3 | CCn1c(-c2cccnc2[C@H](C)OC)c2c3cc(ccc31)N1CCO[C@@H](C[C@H](NC(=O)[C@H](C(C)C)N3CC[C@@]4(CCN(C(=O)C#CC(C)(C)N(C)C)C4)C3=O)C(=O)N3CCC[C@H](N3)C(=O)OCC(C)(C)C2)C1 (atropisomer, axis not shown) [Example A614] |  | 10 to 100 nM | 1000 to 10000 nM | > 10000 nM | > 10000 nM | > 10000 nM | > 10000 nM | > 10000 nM | > 10000 nM | 10 to 100 nM | > 10000 nM | > 10000 nM | > 10000 nM | < 5000 nM
4 | CCn1c(-c2cccnc2[C@H](C)OC)c2c3cc(ccc31)-c1cccc(c1)C[C@H](NC(=O)[C@H](C(C)C)N(C)C(=O)C1(F)CCN(C(=O)C#CC(C)(C)N(C)C)CC1)C(=O)N1CCC[C@H](N1)C(=O)OCC(C)(C)C2 (atropisomer, axis not shown) [Example A699] |  | < 10 nM | 10 to 100 nM | 100 to 1000 nM | 1000 to 10000 nM | 100 to 1000 nM | 100 to 1000 nM | 100 to 1000 nM | 100 to 1000 nM | < 10 nM | 100 to 1000 nM | 100 to 1000 nM | 100 to 1000 nM | < 5000 nM
5 | C=CC(=O)N1CC[C@H](C(=O)N(C)[C@H](C(=O)N[C@H]2Cc3cccc(c3)-c3ccc4c(c3)c(c(-c3cc(N5CCN(C)CC5)cnc3[C@H](C)OC)n4CC)CC(C)(C)COC(=O)[C@@H]3CCCN(N3)C2=O)C(C)C)C1 (single isomer, unassigned) [Example A328] |  | 10 to 100 nM and 1000 to 10000 nM | 100 to 1000 nM and > 10000 nM | 100 to 1000 nM and > 10000 nM | 1000 to 10000 nM and > 10000 nM | 1000 to 10000 nM and > 10000 nM | 1000 to 10000 nM and > 10000 nM | 1000 to 10000 nM and > 10000 nM | 100 to 1000 nM | 10 to 100 nM and 1000 to 10000 nM | 1000 to 10000 nM | 1000 to 10000 nM | 1000 to 10000 nM | < 5000 nM
